Reference: patent US6146824A, “Method for determining tumor cell adhesion” (Hadasit Medical Research Services and Development Company …, priority 1995, dated 2000)
No end group written: not given here.

Legend:
rat-aorta ring = assay: Apoptosis in rat aorta ring by TUNEL nuclei staining; format: cell-based
Procedure: Apoptosis, or programmed cell death, can be evaluated by DNA fragmentation using a technique based on terminal deoxynucleotidyl transferase (TdT) reactivity with DNA breaks. This histochemical staining was based on the original "TUNEL" method (Gavrieli, et al., J. Cell Biol. 119:493-501 (1992)). Tissue was fixed in buffered formalin; after deparaffinization and hydration, the slide was quenched with H2 O2, in methanol. In order to strip the nuclear proteins, the tissue was preincubated in Tris-HCl and then incubated with proteinase K (20 μg/ml) for 15 minutes and washed. DNA fragments are elongated and labeled with biotinylated poly dUTP, introduced by terminal deoxynucleotidyl transferase. Finally, bound biotin is stained by avidin conjugated peroxidase, developed with nickle-enhanced diaminobenzidine. For positive control (FIG. 12, E) staining serves a preparation that was exposed to DNase digestion (according to Gavieli, et al., supra). […] It is important to emphasize that the RGD derived peptide-Th-1, is capable of inducing in addition to inhibition of micro-vessel sprout formation, cellular signaling of programmed cell death, indicating a possible explanation for the mechanism by which angiogenesis is prevented by Th-1.

B16-BL6 cells [1] = assay: Adhesion of high metastatic B16-BL6 melanoma cells to coated substrate (methylene blue uptake); format: cell-based, murine; details: plates coated with 10, 50 or 250 μg/well peptide or 10 μg/ml plasmin-digested thrombin; 37° C., 2 hours
Procedure: (§1) Confluent endothelial cells were dissociated with trypsin-EDTA solution, washed once in growth medium and resuspended in DMEM containing 0.2% bovine serum albumin (BSA). 1.3×10^5 cells/well/0.2 ml DMEM containing 0.2 BSA were added to each protein-coated well and incubated at 37° C. for 2 h. The plates were then washed three times with phosphate batter saline (PBS) and the firmly attached cells were fixed with 3% paraformaldehyde. Fixed cells were then rinsed with 0.1 M borate buffer (pH 8.5), stained for 10 mins. at 22° C. with 0.1 ml/well methylene blue (1% in 0.1 M borate buffer, pH 8.5) and washed four times in borate buffer. This procedure removed practically all non cell-bound dye. Methylene blue which was incorporated by cells was dissolved with 0.1 N HCl (0.2 ml/well) for 40 mins. at 37° C., and determined by its absorbance at 600 nm. Tissue culture plates were coated with either 10, 50 or 250 μg/well of Th-1; with 10 μg/ml of thrombin digested by incubation at 22° C. for 1 hour with plasmin (2 μg/ml); or with 0.2% BSA which served as control (CON). 0.5×10^6 cells/wells of B16-BL6 or B16-F1 cells, which are known to present in vivo high and low pulmonary colonization, respectively, were incubated at 37° C. for 2 hours with the plates coated with the substrates described above. […] The level of cell attachment was evaluated by the methylene blue uptake assay described in I(E) above. […]

B16-BL6 cells [2] = assay: Inhibition of B16-BL6 cell adhesion to modified RGD-exposed thrombin (plasmin-digested); format: cell-based, murine
Procedure: Fixed cells were then rinsed with 0.1 M borate buffer (pH 8.5), stained for 10 mins. at 22° C. with 0.1 ml/well methylene blue (1% in 0.1 M borate buffer, pH 8.5) and washed four times in borate buffer. This procedure removed practically all non cell-bound dye. Methylene blue which was incorporated by cells was dissolved with 0.1 N HCl (0.2 ml/well) for 40 mins. at 37° C., and determined by its absorbance at 600 nm. 10 μg/ml of thrombin was digested with 2 μg/ml plasmin by incubation in 22° C. for 1 hour. Tissue culture plates were coated with digested […] by incubation at 4° C. for 2 hours. 1×10^6 B16-BL6 cells were incubated, at 22° C. for 30 mins. with increasing concentrations of Th-1 peptide (20-300 μg) prior to attachment to treated tissue culture plates by incubation at 37° C. for 2 hours. The attached cells were washed 3 times with PBS and fix with 3% formaldehyde. The level of attachment was evaluated by the methylene blue uptake assay described in I(E) above.

MeWoLN161 (61) cells = assay: Adhesion of high metastatic human melanoma cells 61 to Th-1; format: cell-based; details: 100 μg/ml Th-1; compared with low metastatic MeWo
Procedure: (§2) Human melanoma cells established from lymph node metastases, being either MeWo cell lines representing diverse metastatic potentials, or a highly metastatic cell line originating from a melanoma patient (Nip et al., J. Clin. Invest. 90:1406-1413 (1992)) were used. High metastatic cells were selected by adhesion to lymph nodes and were designated as MeWoLN161 (also referred to as "61").
(§3) The cells were incubated with 100 μg/ml Th-1 and their adherence was determined as described above. As control, the level of adherence of the cells to BSA coated substrate was determined.

[3] = tested on: B16-BL6 murine melanoma cells; assay: Inhibition of lung colonization of co-injected B16-BL6 melanoma cells in C57BL/6 mice; format: in vivo
Procedure: 1×10^5 cells/0.2 ml/mouse B16-BL6 cells were injected into the lateral tail vein of unanesthetized C57BL/6 mice. The mice were monitored on a daily basis and sacrificed 2 weeks later by cervical dislocation. The animals were necropsied, and the lungs were removed, washed in water, and fixed in Bouin's solution (containing saturated solution of picric acid, 2% glacial acetic acid and 3% formaldehyde). The number of lung nodules was determined under a dissecting microscope.
B16-BL6 cell monolayers in culture were detached for 2 mins. with 0.02% EDTA and resuspended gently to 1×10^5 cells/0.2 ml DMEM. 0.5 mg/1×10^5 cells/0.2 ml of Th-1 was preincubated, at 37° C. for 30 mins, with a half of the cells' cultures prior to injecting mice. A single cell suspension (1×10^5 cells/0.2 ml/mouse), comprising either Th-1 treated or Th-1 untreated melanoma cells was injected slowly into the lateral tail vein of C57BL/6 mice.
Fourteen days after injection, the mice were sacrificed, and their lungs were excised and fixed with 10% formaldehyde and stained with saturated picric acid. The number of surface melanoma colonies was counted visually or with the aid of a dissecting microscope.

MIM/8 cells = assay: Adhesion of high metastatic human melanoma cells MIM/8 to Th-1; format: cell-based; details: 100 μg/ml Th-1; compared with low metastatic MeWo
Procedure: as §2, §3

B16-F1 cells = assay: Adhesion of low metastatic B16-F1 melanoma cells to coated substrate (methylene blue uptake); format: cell-based, murine; details: plates coated with 10, 50 or 250 μg/well peptide or 10 μg/ml plasmin-digested thrombin; 37° C., 2 hours
Procedure: as §1

melanoma cells = details: Humphries et al. (1988); cited from earlier work

Procedure for rat aorta rings: Type 1 collagen is prepared from the tail tendons of adult Sprague-Dawley rats. Briefly, the collagen fibers are solubilized by a slow stirring for. 48 hours at 4° C. in a sterile, 1/1000 (v/v) acetic acid solution (300 ml for 1 gr. of collagen). The resulting solution is filtered through a sterile triple gause and centrifuged at 16,000 gr for 1 hour at 4° C. The collagen matrix gel is obtained by simultaneously raising the pH and ionic strength of the collagen solution. For this purpose, seven vols. of collagen solution was quickly mixed with 1 vol. of 10×Minimum Essential Medium and 2 vols. of sodium bicarbonate (0.15 M).
Thoratic aortas are obtained from 1-2 month old SD rats sacrificed by decapitation. The aortas are immediately transferred to a Petri dish with PBS. The fibroadipose tissue around the aorta is carefully removed under a dissecting microscope and 1 mm long aortic rings are sectioned and extensively rinsed with PBS.
The collagen solution (0.2 ml) is added to each of 16 mm well and gellation was allowed for 15 mins. at 37° C. The aorta ring is transferred and positioned to the center of the gel and another 0.4 ml of the collagen solution is carefully poured on top of the ring. After the gel is formed, 0.4 ml of Serum-free Endothelial Growth Medium is added and changed every other day.
In this system, the rings of aorta are cultured in a three-dimensional gel of collagen sprouts to microvessel.

Substance | concentration giving maximal induction of apoptosis (rat-aorta ring) [µg/mL] | apoptosis (nuclei staining, TUNEL) (rat-aorta ring; 10-250 μg/ml) | adhesion of B16-BL6 cells to the substrate (B16-BL6 cells [1]) | concentration at which inhibition of adhesion to modified RGD-exposed thrombin was already obtained (B16-BL6 cells [2]; B16-BL6 cells) [µM] | inhibition of adhesion of B16-BL6 cells to modified RGD-exposed thrombin (B16-BL6 cells [2]; cells preincubated with 20-300 μg peptide, 22° C., 30 mins) | adherence of 61 cells to Th-1 compared to BSA control (MeWoLN161 (61) cells) | inhibition of lung colonization ([3]; 0.5 mg peptide/mouse, co-injected i.v. with B16-BL6 cells, 14 days) | effect on melanotic colonies in the lungs ([3]; co-injection with B16-BL6 cells, 14 days after injection, vs B16-BL6 alone) | potency in inhibiting metastasis of melanoma cells relative to GRGDS peptide ([3]; vs GRGDS of prior art) | adherence of MIM/8 cells to Th-1 compared to BSA control (MIM/8 cells) | adhesion of B16-F1 cells to the substrate (B16-F1 cells) | concentration giving 50% inhibition of explant formation (rat aorta rings) [µg/mL] | concentration giving complete inhibition (rat aorta rings) [µg/mL] | inhibition of angiogenesis in aorta rings (rat aorta rings; 100 μg/ml, vs peptide of similar size without RGD-site) | microvessel formation after longer incubation then washout (rat aorta rings; 150 μg/ml for 6 days, then fresh medium) | microvessel formation with peptide constantly present (rat aorta rings; 150 μg/ml, up to 14 days) | inhibition in sprout formation of the microvessel (rat aorta rings; 10-250 μg/ml) | concentration at which inhibition of metastasis was evident (melanoma cells) [mg/mouse]
AGYKPDEGKRGDAC [Th-1, I.D. No. 2, residues 178-191 of native thrombin] | 250 | dose dependent manner | high, dose dependent adhesion | 16 | inhibited, in a dose depended manner | significantly higher level of adherence | Over 90% | marked reduction of melanotic colonies | about 20 fold | significantly higher level of adherence | low relatively dose independent adhesion level | ~50 | 100 to 250 | able to inhibit angiogenesis | further increased inhibition | complete inhibition | dose dependent inhibition | –
GRGDS | – | – | – | – | – | – | – | – | – | – | – | – | – | – | – | – | – | 3
